In PMC5000756, “Involvement of Three Esterase Genes from Panonychus citri (McGregor) in Fenpropathrin Resistance” (International Journal of Molecular Sciences, 2016):

Target: T1, PcE1 (Panonychus citri, UniProt D7NHW8)
T1 construct: ORF in pFastBac HTA, baculovirus-infected Sf9 cells; supernatant of cell homogenate
T1 sequence (D7NHW8 19-550): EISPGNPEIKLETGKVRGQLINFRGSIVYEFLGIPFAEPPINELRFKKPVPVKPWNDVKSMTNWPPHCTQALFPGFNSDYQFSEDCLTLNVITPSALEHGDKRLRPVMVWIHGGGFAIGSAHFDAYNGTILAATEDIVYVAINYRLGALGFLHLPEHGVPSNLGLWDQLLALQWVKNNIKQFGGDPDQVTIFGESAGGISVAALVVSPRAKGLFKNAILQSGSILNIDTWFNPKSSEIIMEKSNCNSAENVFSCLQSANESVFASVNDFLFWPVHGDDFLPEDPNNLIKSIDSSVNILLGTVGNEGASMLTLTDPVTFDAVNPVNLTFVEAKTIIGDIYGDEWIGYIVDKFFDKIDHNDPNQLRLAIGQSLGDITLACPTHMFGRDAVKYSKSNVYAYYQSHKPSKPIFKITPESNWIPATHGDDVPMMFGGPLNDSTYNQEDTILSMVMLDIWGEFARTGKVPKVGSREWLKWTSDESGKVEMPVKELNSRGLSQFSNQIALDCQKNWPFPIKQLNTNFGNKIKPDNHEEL
Assay: spectrophotometric, fast blue coupling, […] nm
Assay type: biochemical
Conditions: Sf9 cell lysate versus GFP control; pH 7.0, 30 °C

Structure (SMILES): CC(=O)Oc1cccc2ccccc12 [α-naphthyl acetate]
- spectrophotometric, fast blue coupling, 600 nm: All recombinant proteins showed significant catalytic activities when α-NA was used as the substrate
